{"source": "patent US20040171015A1", "about": "“Cyp450-specific dna probes and primers, and biological applications thereof” (priority 2003, published 2004)", "key": {"CYP450": {"system": "CYP450", "conditions": "known inducers used for validation; cited from earlier work"}, "CYP 1A2": {"system": "CYP 1A2", "assay": "membrane (slot blot) and Northern blot assay of CYP450 mRNA in treated human hepatocytes", "assay_type": "cell-based", "conditions": "48 hours exposure, 3-MC 5 microM", "procedure": "(§1) Total RNA contents are measured on a UV spectrophotometer.\n(§2) The labeled cDNA thus produced are then purified."}, "CYP 1A1": {"system": "CYP 1A1", "assay": "membrane (slot blot) and Northern blot assay of CYP450 mRNA in treated human hepatocytes", "assay_type": "cell-based", "conditions": "48 hours exposure, 3-MC 5 microM", "procedure": "as §1, §2"}, "CYP 3A4": {"system": "CYP 3A4", "procedure": "(§3) 600 microliters of solution D (pH7; guanadium thiocyanate 4M; sodium citrate 25 mM; sarcosyl 0.5%; and 1.4 ml of beta-mercaptoethanol per 200 ml of solution D) have been added to each well so as to induce cell lysis. […] Are then successively added: 0.1 volume of sodium acetate (2M, pH4), 1 volume of water-saturated phenol and 0.2 volume of chloroform/isoamylalcohol (49/1, V/V). At each step, the suspension is vigorously vortexed, then left to cool on ice for 15-20 min, and centrifigated for 30 min at 4000 g and 4° C. An equal volume of isopropanol is added after removal of the aqueous phase.\n(§4) RNA are then precipitated (1 hour at −20° C.) and centrifuged for 30 min at 4000 g and 4° C. The supernatant is removed and the pellets are re-suspended in 2.7 ml of solution D. 2.7 ml of isopropanol are then added to the suspension, and the RNA are again precipitated (1 hour at −20° C.) and centrifugated. The pellets are washed with 5.4 ml of 70% ethanol. After a final centrifugation and removal of the supernatant, the pellets are air-dried, and re-suspended in sterile water containing DEPC (DEPC 1/1000 in water, then sterilization). Total RNA contents are measured on a UV spectrophotometer.\n(§5) 25 micrograms of total RNA have been placed into contact with oligo-dT (0.4 mM final of an equimolar composition of oligod(T) and of three oligosd(T) which have an A or a G or a C in 3′), and heated to 70° C. for 10 min, then incubated for 5 min on ice so as to allow oligo-dT hybridization on polyA RNA.\n(§6) The labeled cDNA are then hybridized with the filters (48 hours at 42° C.). […] Filters have then been washed with SSC 2× buffer without SDS for 30 min at 42° C., and exposed overnight in a phosphorimager cassette.\n(§7) For comparison purposes, Northern blots comprising 10 micrograms of total RNA have been incubated for hybridization with each cDNA probe separately. Quantifications are achieved by measuring band intensities per 18S quantity (as evaluated by ethidium bromide coloration)."}, "CYP 14 sub-family": {"system": "CYP 14 sub-family", "conditions": "human hepatocytes, 48 hours exposure; PB 1 microM, RIF 50 microM", "description": "RNA are then precipitated (1 hour at −20° C.) and centrifuged for 30 min at 4000 g and 4° C. The supernatant is removed and the pellets are re-suspended in 2.7 ml of solution D. 2.7 ml of isopropanol are then added to the suspension, and the RNA are again precipitated (1 hour at −20° C.) and centrifugated. The pellets are washed with 5.4 ml of 70% ethanol. After a final centrifugation and removal of the supernatant, the pellets are air-dried, and re-suspended in sterile water containing DEPC (DEPC 1/1000 in water, then sterilization). Total RNA contents are measured on a UV spectrophotometer. […]"}, "CYP 3A5": {"system": "CYP 3A5", "conditions": "hepatocytes", "procedure": "as §3, §4, §5, §6, §7"}, "CYP 3A7": {"system": "CYP 3A7", "conditions": "hepatocytes", "procedure": "as §3, §4, §5, §6, §7"}, "CYP450 isoforms": {"system": "CYP450 isoforms", "assay": "specificity assays of the cDNA probes (hybridization on filters and Northern blot)", "assay_type": "binding, human", "conditions": "32P-labeled probe, filters with plasmidic DNA / 3′-NTR, Northern blot of total RNA", "from_the_text": "On nylon® membrane filters, the following DNA sequences were deposited:\neither the sequences obtained by amplification of 50 nanograms of plasmidic DNA as described in the above example 1, followed by purification and UV spectrophotometry dosage (Power Wave X2, Biotek instruments®, St Quentin en Yvelines, France),\nor plasmidic DNA (50 nanograms of linearized plasmid containing a probe inserted therein, or of empty pUC plasmid) obtained from the clones described in the above example 1 after linearization by Bam H1 (20 IU for 20 micrograms of plasmidic DNA, 1 hour at 37° C.).\nThe amplified sequences as well as the plasmidic ones were denatured by EDTA (final concentration of 10 mM, 10 min at 65° C.) and then by NaOH (final concentration of 0.1 M, 30 min at ambient temperature), and neutralized by SSC6× buffer, before being deposited onto a nylon® membrane (Biosupport®, Pall, Portsmouth, UK). Binding to the membrane was achieved by exposure to UV for 4 min and heating at 80° C. for 2 hours.\nThree types of specificity assays have been performed:\nintra-probe specificity: each cDNA probe (SEQ ID NO: 1-14) has been labeled with ^32P following Megaprime® DNA Labelling System (Amersham Pharmacia Biotech, Elancourt, France) and according to random primer polymerization. […]"}}, "note": "Like-named read-outs stand apart in the source and are kept apart here.", "data": [{"molecule": "Cc1ccc2cc3c(ccc4ccccc43)c3c2c1CC3", "note": "[3-methylcholanthrene]", "values": [{"measurement": "CYP450 induced", "setting": "CYP450", "result": "CYP 1A"}, {"measurement": "change in CYP 1A2 (hybridization signal of reverse-transcribed total RNA)", "setting": "CYP 1A2", "result": "also but more weakly"}, {"measurement": "change in CYP 1A1 (hybridization signal of reverse-transcribed total RNA)", "setting": "CYP 1A1", "result": "increase"}, {"measurement": "change in CYP 3A4 (hybridization signal of reverse-transcribed total RNA)", "setting": "CYP 3A4; human hepatocytes, 48 hours exposure, 3-MC 5 microM, PB 1 microM, RIF 50 microM", "result": "decrease"}]}, {"molecule": "CCC1(c2ccccc2)C(=O)NC(=O)NC1=O", "note": "[phenobarbital, Phenobarbital]", "values": [{"measurement": "variation of CYP 14 sub-family (hybridization signal)", "setting": "CYP 14 sub-family", "result": "no variation"}, {"measurement": "CYP450 induced", "setting": "CYP450", "result": "CYP 3A"}, {"measurement": "variation of CYP 3A5 (hybridization signal)", "setting": "CYP 3A5", "result": "no variation"}, {"measurement": "variation of CYP 3A7 (hybridization signal)", "setting": "CYP 3A7", "result": "no variation"}, {"measurement": "change in CYP 3A4 (hybridization signal of reverse-transcribed total RNA)", "setting": "CYP 3A4; hepatocytes", "result": "strong decrease"}]}, {"molecule": "SEQ ID NO: 8: DNA molecule which hybridizes to CYP 2C9 (nucleic acid, listed as Homo sapiens, DNA, backbone and methylation of C not given here, DNA molecule which hybridizes to CYP 2C9) DNA: TTTGTGTATTATAATTCAAAGGCATTTCTTTTCTGCATGTTCTAAATAAAAAGCATTATTATTTGCTG", "values": [{"measurement": "hybridization specificity of the probe (cross-hybridization with other CYP450 isoforms, empty plasmid, other RNA from human hepatocytes, 3′-NTR)", "setting": "CYP450 isoforms", "result": "only hybridizes to its CYP 2C9 target"}]}, {"molecule": "SEQ ID NO: 9: DNA molecule which hybridizes to CYP 2C19 (nucleic acid, listed as Homo sapiens) DNA: TTTCACTATCTGTGATGCTTCTTCTGACCCGTCATCTCACATTTTCCCTTCCCCCAAGATCTAGTGAACATTCAGCCTCCATTAAAAAAGTTTCACTGTGCAAATATATCTGCTATTCCCCATACTCTATAATAGTTACATTGAGT", "values": [{"measurement": "hybridization specificity of the probe (cross-hybridization with other CYP450 isoforms, empty plasmid, other RNA from human hepatocytes, 3′-NTR)", "setting": "CYP450 isoforms", "result": "may hybridize in the 3′-NTR region of CYP 2C9"}]}]}
